The test system of assay [1] is soybean seedlings. Kind of assay: Soybean seedling response to spot infiltrated auxins and conjugates. As to 1st trifoliate leaf curl: key: 0 = no phenotype; +/− = threshold. As to Chlorotic lesion @ app. Pnt: key: 0 = no phenotype; +/− = threshold. The class given is in vivo. On the set-up: 1st trifoliate leaf curl / Epinasty score: key: 0 = no phenotype; +/− = threshold. The note with it: for 1st trifoliate leaf curl / Chlorotic lesion @ app. Pnt / Epinasty score: spot infiltration; for Plant response phenotype, soybean: 1, 2.5 and 5 mM, result in words. As for the experimental part:
Conjugate forms of auxinic compounds when applied through spot infiltration, a needleless method to introduce exogenous agents into plant cells. Initially, various concentrations of analytical grade (98%+pure) IAA, 2,4-D, and dicamba were prepared as solutions that were applied directly to uni-foliate leaves of 9 day old soybean seedlings by spot infiltration in order to determine the range of auxinic response and severity.
Spot infiltration comprises applying a compound to be tested in composition that is applied to the surface of a plant, for example, to a leaf or other plant structure. For example, a method for testing a plant response to one or more compounds using spot infiltration comprises a) providing a composition comprising one or more compounds to be tested in a container having at least an opening for the compound enter and/or exit, and one or more elements for moving the composition into or out of the container; b) contacting at least one opening of the container with the surface of a plant and moving the composition comprising one or more compounds to at least the surface of the plant. A container and elements for moving the composition may comprise a syringe body and plunger. Moving the composition to the plant surface comprises contacting the surface with pressure sufficient for the composition to enter the cells of the plant. In an aspect, spot filtration testing comprises measuring an effect of the composition on the contacted plant and comparing that measure or effect to a plant that is not contacted with the composition.
Plant response phenotypes were documented at one day post-spot infiltration and subsequently every other day, up to nine days post treatment. […] In the studies described herein below, 5 replicate treatments for each conjugate form were conducted, along with appropriate negative controls.
(§1) Examples 9 and 10 utilized a spot infiltration method for the delivery of an herbicide directly to leaves of a plant. The method generally allows for the directed delivery of a variety of agents to a localized area of a plant, e.g. localized region of leaves, for screening or assessment purposes, e.g. to quickly assess the response of a plant to the agent. As used in the foregoing examples, the spot infiltration method was used to introduce specific herbicides or specific conjugates of the herbicides to seedling plant leaves. Following introduction of the herbicide or the appropriate conjugate, plants were observed daily for nine days for characteristics of epinasty, trifoliate leaf curly, chlorosis, and new growth recovery.
(§2) Briefly, a solution of the desired agent is prepared of the desired agent, e.g. as described above in Example 10, solutions (5% EtOH) of 1, 2.5 and 5 mM IAA. The solution is then drawn into a 1 mL BD™ slip-tip syringe, bulk, non-sterile syringe (e.g. Becton, Dickinson and Company, Product No. 301025) with 100 μL markings. The desired volume is then applied to the leaf, e.g. as described in Examples 9 and 10, with the tip of the syring against the leaf and positive pressure applied to the syringe plunger. Sufficient pressure is applied in order to infuse the area beneath the syringe opening, but not so much pressure as to cause a visible-to-the-eye puncture or hole to form in the leaf. Some run-off of solution around the syringe opening is expected. In the foregoing examples, two spots were applied to each of two leaves per seedling for soybean plants. […] In soybean, both spots per leaf were at the distal portion of the leaf about 1-2 cm apart. When the method was applied to Arabidopsis, two developmentally intermediate aged leaves were chosen per plant, and one spot infiltration was carried out per leaf.

The test system of assay [2] is Arabidopsis ecotype Col-0 plant. The experiment in a line: Arabidopsis response to spot infiltrated auxins and conjugates. The class given is in vivo, Arabidopsis thaliana. Conditions: result in words. The protocol:
The effect of auxin conjugates was assessed using Arabidoposis (Arabidopsis thialiana) ecotype Col-0 plant. Prior to studies utilizing the auxin conjugates, levels of analytical grade (98%+pure) IAA, 2,4-D and dicamba in solution were applied at various concentrations directly to developmentally similar leaves of 20-23 day old Arabidopsis seedlings by needleless syringe spot infiltration methodology, in order to determine range of auxinic response and severity. Phenotypes were documented relative to control at 1 day post-spot infiltration and subsequently every other day, up to nine days post treatment. Three concentrations were chosen based on reproducibility, and conjugated forms were then studied with 4 or more replicate treatments for each, along with appropriate negative controls (H2O and 10% EtOH).
as §1, §2
Generally, for Arabidopsis, the two leaves were chosen from opposite sides of rosette. In general, the spot infiltration method is carried out on younger plants in order to minimize experimental footprint and to maintain developmental uniformity. However, the method is not limited to use on young plants and can be easily applied to older plants as determined by the goals of a particular experiment.

Assay [3] can be described thus: LC-MS assay of GH3 conjugation of IAA with Asp or Glu. Conditions: LC-MS; for Detected auxin conjugates: IAA-Asp: IAA with Asp; for Detected auxin conjugates: IAA-Glu: IAA with Glu. The class given is biochemical. The method, boiled down:
(§3)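 Rxn: 20 mM Tris-HCl pH 8.0, 5 mM MgCl2, 1 mM DTT, 5 mM ATP, 5 mM auxin, 5 mM Asp/Glu, 44–164 μg/mL purified His-GH3; 30° C., 3 h. MeOH quench, supernatant diluted 20×, LC-MS vs conjugate standards.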

A short description of assay [4]: LC-MS assay of GH3 conjugation of dicamba with Asp or Glu. Type of assay: biochemical. Conditions: LC-MS; for Detected auxin conjugates: Dicamba-Asp: dicamba with Asp; for Detected auxin conjugates: Dicamba-Glu: dicamba with Glu. The gist of the method:
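GH3 superfamily homologs, found by Blast searches of public databases using AtGH3.17 (Q9FZ87), were synthesized with E. coli-optimized codons and an N-terminal his-tag, expressed in OverExpress C41(DE3) cells after 0.2 mM IPTG induction at 16° C., and Ni-NTA purified. Conjugation of dicamba with Asp or Glu was measured by LC-MS using conjugate standards.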

The nature of assay [5]: LC-MS assay of GH3 conjugation of 2,4-D with Asp or Glu. The note with it: LC-MS; for Detected auxin conjugates: 2,4-D-Asp: 2,4-D with Asp; for Detected auxin conjugates: 2,4-D-Glu: 2,4-D with Glu. The class given is biochemical. The gist of the method:
as §3

Setting [6] is: 1, 2.5 and 5 mM, all test levels.

As to `O=C(O)C[C@H](NC(=O)Cc1c[nH]c2ccccc12)C(=O)O` [IAA-Asp], the “1st trifoliate leaf curl” value in assay [1] (1.0 mM), in assay [1] (2.5 mM) and in assay [1] (5.0 mM) was 0 each time. For the same molecule, the “Chlorotic lesion @ app. Pnt” value in assay [1] (1.0 mM), in assay [1] (2.5 mM) and in assay [1] (5.0 mM) was 0 each time. The Epinasty score in assay [1] (1.0 mM), in assay [1] (2.5 mM) and in assay [1] (5.0 mM) was 0 each time. The “Plant response phenotype, soybean” value in assay [1] is “No discernable phenotype”. The “Phenotype, Arabidopsis” value in assay [2] (setting [6]) is “No discernable phenotype”.

Regarding `O=C(O)Cc1c[nH]c2ccccc12` [IAA, indole-3-acetic acid], the “1st trifoliate leaf curl” value in assay [1] (1.0 mM), in assay [1] (2.5 mM) and in assay [1] (5.0 mM) was 0 each time. Also, the “Chlorotic lesion @ app. Pnt” value in assay [1] (1.0 mM), in assay [1] (2.5 mM) and in assay [1] (5.0 mM) was 0 in each case. The “Plant response phenotype, soybean” value in assay [1] is “modest stem twisting and bending (epinasty)”. Moreover, the “Phenotype, Arabidopsis” value in assay [2] (5 mM (high dose), 1-2 days post treatment) was “modest petiole twisting (epinasty) and leaf curl”.

Turning to `O=C(O)CC[C@H](NC(=O)Cc1c[nH]c2ccccc12)C(=O)O` [IAA-Glu], in assay [1] (1.0 mM), the “1st trifoliate leaf curl” value stood at 0, the “Chlorotic lesion @ app. Pnt” value is on record as 0 and the Epinasty score is 0. In assay [1] (2.5 mM), the “1st trifoliate leaf curl” value worked out at 0, the “Chlorotic lesion @ app. Pnt” value was 0 and the Epinasty score turned out to be 0. Also, in assay [1] (5.0 mM), the “1st trifoliate leaf curl” value is listed as 0, the “Chlorotic lesion @ app. Pnt” value is on record as 0 and the Epinasty score stood at 0. Besides, the “Plant response phenotype, soybean” value in assay [1] was “No discernable phenotype”. The “Phenotype, Arabidopsis” value in assay [2] (setting [6]) is “No discernable phenotype”.

B1: AtGH3-11: GH3 protein, accession AAD23040 (protein, listed as Arabidopsis thaliana)
chain: MLEKVETFDMNRVIDEFDEMTRNAHQVQKQTLKEILLKNQSAIYLQNCGLNGNATDPEEAFKSMVPLVTDVELEPYIKRMVDGDTSPILTGHPVPAISLSSGTSQGRPKFIPFTDELMENTLQLFRTAFAFRNRDFPIDDNGKALQFIFSSKQYISTGGVPVGTATTNVYRNPNFKAGMKSITSPSCSPDEVIFSPDVHQALYCHLLSGILFRDQVQYVFAVFAHGLVHAFRTFEQVWEEIVTDIKDGVLSNRITVPSVRTAMSKLLTPNPELAETIRTKCMSLSNWYGLIPALFPNAKYVYGIMTGSMEPYVPKLRHYAGDLPLVSHDYGSSEGWIAANVTPRLSPEEATFAVIPNLGYFEFLPVSETGEGEEKPVGLTQVKIGEEYEVVITNYAGLYRYRLGDVVKVIGFYNNTPQLKFICRRNLILSINIDKNTERDLQLSVESAAKRLSEEKIEVIDFSSYIDVSTDPGHYAIFWEISGETNEDVLQDCCNCLDRAFIDAGYVSSRKCKTIGALELRVVAKGTFRKIQEHFLGLGSSAGQFKMPRCVKPSNAKVLQILCENVVSSYFSTAF
For the molecule B1, in assay [3], the “Detected auxin conjugates: IAA-Asp” value is recorded as “No” and the “Detected auxin conjugates: IAA-Glu” value was “No”. In assay [4], the “Detected auxin conjugates: Dicamba-Asp” value is given as “No” and the “Detected auxin conjugates: Dicamba-Glu” value is on record as “No”. Further, in assay [5], the “Detected auxin conjugates: 2,4-D-Asp” value was “No” and the “Detected auxin conjugates: 2,4-D-Glu” value is reported as “No”.

B2: OsGH3-3: GH3 protein, accession EEE54131 (protein, listed as Oryza sativa)
chain: MLEKKATRSTRVDGVSGEAVIEEFERVTRDAANVQRETLRRILAENGGVEYLRGLGLAGATDPATFRARVPLATHADLEPYIDRIADGDASPVLTAKPATSISLSSGTTQGKRKYLLFNEELVKSTMQIYRISYAFRNREFPVENGKALQFIYSSRETRTKGGLTATTATTNVYRSEEFKATMRDIQSQCCSPDEVIFGPDFAQSLYCHLLAGLLAAGDVQIVSATFAHSVVLAFQTFERAWEDLCADIRRGEVSPSRVTSPAVRRAMAALLAAPNPGLADEVARKCAALSNWYGVIPALWPNARYVYGIMTGSMEHYVKKLRHYAGGLPLVAAEYGASEGWVGANVEPGTPPERATFTVLPDIAYFEFIPLKPVAGDGGYAEAEPVGLTEVAAGELYEVVMTTFAGLYRYRLGDVVKVAGFYNATPKLKFVCRRNLMLSINIDKNSEQDLQLAVDAAARAVLAGEKLEVVDYTSHADVSSDPGHYVVFLELNAADPAAVDGDVMQACCDELDRAFADAGYVGSRKSGAIAPLELRVLQRGTFQKVLRHYLSLGAPVSQFKSPRCVSRSNSGVLQILAGCTVNVFFSSAYD
Consider B2, for which, in assay [3], the “Detected auxin conjugates: IAA-Asp” value is reported as “Yes” and the “Detected auxin conjugates: IAA-Glu” value is on record as “No”. For the same molecule, in assay [4], the “Detected auxin conjugates: Dicamba-Asp” value is “No” and the “Detected auxin conjugates: Dicamba-Glu” value was “No”. In addition, in assay [5], the “Detected auxin conjugates: 2,4-D-Asp” value is listed as “No” and the “Detected auxin conjugates: 2,4-D-Glu” value is given as “No”.

B3: OsGH3-12: GH3 protein, accession Q53P49 (protein, listed as Oryza sativa)
chain: MLEKEGKLIMSREDEEIMAWFERTTRDAADVQRETLRRILAENAGVEYLRELGLAGLTDAGSFRARVPVVTHADLDPYIQRVADGDASPVLTAKPVTAISLSSGTTQGKRKRLLFNDDLLRSSIRFFHASYAFTNRAFPVEDGRVLQFMYGSRHETTKGGLTATTVMTNLLRSEEFTASMAARSRPRLPSCSPSEVVFSPDFDESLYCHLLCGLLLAGEVRAVSASFAHSIVVALQALERVWRELCADIRRGAASPARVTTPAVRRAVAPILAAPNPALADALERRCAALGDWSGVIPALWPNARYVQATMTGSMEHYVKKLRHYAGGVPLVSGNYASSEGVIGINAEQHAPPESVVFTVLPDAAYFEFIPLKPPCTDAAADDDNPAAAGSSCYVDADDANPVGLTDVVVGEHYEVVMTTFTGLYRYRLGDVVKVAGFHHATPKLRFVCRRSLILSINVDKNSEHDLQLAVDSAAKILAGDGENHKQLEIADYTSHADTSSDPGHYVVFWELNGGGEEDGGGVLQRCCDEMDRAFGADAGYAQSRKTCAIGALELRVLRRGAFQEVLRHYVAGGSSAGQFKMPRCVAPSNAGVLRVLKDNTINIFFSTAYDYD
Take B3: in assay [3], the “Detected auxin conjugates: IAA-Asp” value was “No” and the “Detected auxin conjugates: IAA-Glu” value was “No”. Further, in assay [4], the “Detected auxin conjugates: Dicamba-Asp” value was “No” and the “Detected auxin conjugates: Dicamba-Glu” value is given as “No”. In assay [5], the “Detected auxin conjugates: 2,4-D-Asp” value was “No” and the “Detected auxin conjugates: 2,4-D-Glu” value is on record as “No”.

For the origin of these results see patent US20150351390A1, “COMPOSITIONS AND METHODS FOR AUXIN-ANALOG CONJUGATION” (PIONEER HI-BRED INTERNATIONAL, INC., priority 2012, published 2015).
